One test concerns PAF induced lethality. As to the kind of experiment: PAF induced lethality in mice. It counts as in vivo. Particulars: I.P. 10 mg/kg; corrected for control lethality. As to the method: PAF given I.V. to mice causes an immediate hypotensive shock leading to death in 1 hour or less. Compounds were given intraperitoneally or P.O. at various times before the PAF challenge. Animals alive after 2 hours were counted and the activity of test compounds expressed as % survival corrected for any control (saline treated) animals which survived the PAF challenge.

The test system of another test is LPS induced gut leakage. As to the kind of experiment: Endotoxin induced hemorragic lesions / LPS induced gut leakage in rats. It counts as in vivo, rat (male Wistar). Particulars: for % of control leakage (K), IV LPS induced gut leakage: ± SEM; for protection against LPS induced gut damage: IV LPS. The source says: One of the main sites of LPS induced pathology in the rat and guinea pig is the gut, particularly the duodenum, small intestine and cecum. After LPS exposure hemorragic lesions develop within a few minutes and can involve most of the lumenal surface. The extent of these pathologies can be quantitated histologically or by measuring the amount of plasma proteins that have leaked into the lumen. The second method is much faster and can detect damage in the junctions between capillary or intestinal epithelial cells before gross lesions have developed. Hot tags have shown plasma leakage after LPS challenge using radiolabeled albumin as the probe. In our assay we have chosen to use a non-radioactive tagging method in which plasma albumin is labeled with Evan's blue dye and the lumenal leakage is determined spectrophotometricly.
Evan's blue dye: Sigma e-2129, made as a 1% w/v solution in saline which was filtered and kept refrigerated.
For each experiment fresh 3-[[3-[[hydroxy[2-methoxy-3-(tetradecyloxy)phenoxy]phosphinyl]oxy]phenyl]- methyl]-5-methyl-thiazolium, hydroxide, inner salt was sonicated into saline.
LPS solutions were made fresh for each experiment.
Male Wistar rats, obtained from Charles River, weighing 160-225 gm were maintained in accordance with ALAC standards for at least one week before use.
Food was withheld from the animals for 18 hours before the experiment to clear the intestine. The rats were dosed with 3-[[3-[[hydroxy[2-methoxy-3-(tetradecyloxy)phenoxy]phosphinyl]oxy]phenyl]methyl]-5-methyl-thiazolium, hydroxide, inner salt or saline ip, 4 ml/kg, 1/2 hour before challenge with 25 or 50 mg/kg LPS in the 1% dye at 10 ml/kg. One hour after the LPS insult the animals were sacrificed and the duodenum and initial 6-7 cm of the jejunum isolated. This segment was lavaged with 2 ml of normal saline with the fluid flowing into polyethylene tubes. The lavageate frequently contained mucous and in order to free the stained albumin the samples were sonicated vigorously and then centrifuged to clarify the fluid. The amount of dye was determined spectrophotometrically, using a Vmax microtiter plate reader using the end point mode at […].

Counter-ions that a name gives are not always drawn.

Turning to `CCCCCCCCCCCCCCOc1cccc(OP(=O)([O-])Oc2cccc(C[n+]3csc(C)c3)c2)c1OC` [3-[[3-[[Hydroxy[2-methoxy-3-(tetradecyloxy)phenoxy]-phosphinyl]oxy]phenyl]methyl]-5-methyl-thiazolium, hydroxide, inner salt], the “PAF induced lethality, % protection” value with PAF induced lethality amounted to 17%. For the same compound, the “% of control leakage (K), IV LPS induced gut leakage” value in the test on LPS induced gut leakage (0.125 mg/kg IP, Experiment 1) stood at 24 ± 15%; in the test with LPS induced gut leakage (0.125 mg/kg IP, Experiment 2) it was 107 ± 27%; in the test on LPS induced gut leakage (0.25 mg/kg IP, Experiment 1), 36 ± 23%; in the test on LPS induced gut leakage (0.25 mg/kg IP, Experiment 2) it was 65 ± 15%; in the test on LPS induced gut leakage (0.5 mg/kg IP, Experiment 1), 15 ± 10%; in the test with LPS induced gut leakage (0.5 mg/kg IP, Experiment 2), 16 ± 9%. The “% of control leakage (K), IV LPS induced gut leakage” value with LPS induced gut leakage (1 mg/kg IP, Experiment 1) is listed as 22 ± 15%; with LPS induced gut leakage (2 mg/kg IP, Experiment 1), 10 ± 10%; in the test with LPS induced gut leakage (2 mg/kg IP, Experiment 2), 18 ± 24%; with LPS induced gut leakage (2 mg/kg IP, Experiment 3), 27 ± 11%; with LPS induced gut leakage (20 mg/kg IP, Experiment 1), 20 ± 2%; with LPS induced gut leakage (20 mg/kg IP, Experiment 2), 19 ± 31%. In addition, in the test on LPS induced gut leakage (IP), the “activity seen at doses as low as” value is reported as 1/2. Also, the “doses as low as (able to reduce or eliminate damage produced by IV LPS)” value in the test with LPS induced gut leakage (IP one hour before challenge) was 1/2. Besides, the “protection against LPS induced gut damage” value was “able to reduce or eliminate the damage produced by IV LPS” in the test with LPS induced gut leakage (IP) and “very potent protection against the end point of gut pathophysiology” in the test with LPS induced gut leakage (IP, listed as 3-[[3-[[hydroxy[2-methoxy-3-(tetradecyloxy)phenoxy]-phosphinyl]oxy]phenyl]-methy). Moreover, in the test on LPS induced gut leakage (LPS challenge), the “direct observation of the intestinal tract of LPS challenged protected animals” value is reported as “nearly normal appearing guts”. Also, in the test with LPS induced gut leakage (Rattus norvegicus, ip, read-out: doses as low as (prevents the gut manifestations of endotoxin shock), rats), the minimal effective dose amounted to 0.25 mg/kg. For the same compound, in the test with LPS induced gut leakage (virtually all control animals had severe diarrhea), the “diarrhea in LPS challenged treated animals” value was “little or none”.

For the origin of these results see US5231091A, “Bis-arylphosphate ester antagonists of platelet activating factor” (priority 1992, dated 1993).
